Measurements reported in publication PMC10763615, “Identification and engineering of potent cyclic peptides with selective or promiscuous binding through biochemical profiling and bioinformatic data analysis” (RSC Chemical Biology, 2023).
Positions of bridges follow the written chain, without caps; N, C: chain ends. Residues, ends and D or L forms follow the SMILES beside them.

Key:
Format in all cases: binding
FGF-R3C ECD = biological target: T1, FGF-R3C ECD (Homo sapiens, UniProt P22607); assay: biochemical; set-up: DNA constructs for the extracellular domain (ECD) of human FGF-; HPC4 (C); made in house; host or cells: HEK 293-6E
T1 sequence (P22607 23-375 limits assumed): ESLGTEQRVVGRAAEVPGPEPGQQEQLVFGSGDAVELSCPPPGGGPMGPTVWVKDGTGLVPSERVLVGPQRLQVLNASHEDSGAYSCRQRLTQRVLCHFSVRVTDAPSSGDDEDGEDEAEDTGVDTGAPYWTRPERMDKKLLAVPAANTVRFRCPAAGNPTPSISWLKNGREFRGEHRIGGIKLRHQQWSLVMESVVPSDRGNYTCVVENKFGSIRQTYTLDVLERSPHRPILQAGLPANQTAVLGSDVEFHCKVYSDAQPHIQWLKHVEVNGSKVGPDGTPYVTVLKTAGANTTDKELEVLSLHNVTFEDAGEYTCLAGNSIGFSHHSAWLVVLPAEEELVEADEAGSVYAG
Procedure, shortened: (§1)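 BLI, streptavidin sensors loaded with biotinylated receptor ECD. Single-point: ~1 μM crude peptide, PBS pH7.4/0.05% Tween-20/0.01% BSA; association then dissociation in buffer. KD corrected for UPLC-CAD-determined concentration.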

FGF-R1C ECD = biological target: T2, FGF-R1C ECD (Homo sapiens, UniProt P11362); assay: biochemical; set-up: DNA constructs for the extracellular domain (ECD) of human FGF-; HPC4 (C); made in house; host or cells: HEK 293-6E
T2 sequence (P11362 22-376 limits assumed): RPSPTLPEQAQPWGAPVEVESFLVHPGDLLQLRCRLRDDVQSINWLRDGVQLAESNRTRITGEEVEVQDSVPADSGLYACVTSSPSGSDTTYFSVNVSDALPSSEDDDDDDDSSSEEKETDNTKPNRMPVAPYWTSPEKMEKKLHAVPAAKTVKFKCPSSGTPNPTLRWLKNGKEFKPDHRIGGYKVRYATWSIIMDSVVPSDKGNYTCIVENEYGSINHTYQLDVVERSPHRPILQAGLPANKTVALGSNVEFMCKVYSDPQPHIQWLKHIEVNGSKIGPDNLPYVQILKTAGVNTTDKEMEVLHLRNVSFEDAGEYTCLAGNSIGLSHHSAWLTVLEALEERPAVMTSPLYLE
Procedure, shortened: as §1

FGF-R4 ECD = biological target: T3, FGF-R4 ECD (Homo sapiens, UniProt P22455); assay: single concentration BLI of crude peptides; details: crude T18 selection 1 (1:1:1) peptides, single concentration BLI (Table S4); read-out: KD (4)
T3 construct: DNA constructs for the extracellular domain (ECD) of human FGF-; HPC4 (C); made in house; host or cells: HEK 293-6E
T3 sequence (P22455 22-369 limits assumed): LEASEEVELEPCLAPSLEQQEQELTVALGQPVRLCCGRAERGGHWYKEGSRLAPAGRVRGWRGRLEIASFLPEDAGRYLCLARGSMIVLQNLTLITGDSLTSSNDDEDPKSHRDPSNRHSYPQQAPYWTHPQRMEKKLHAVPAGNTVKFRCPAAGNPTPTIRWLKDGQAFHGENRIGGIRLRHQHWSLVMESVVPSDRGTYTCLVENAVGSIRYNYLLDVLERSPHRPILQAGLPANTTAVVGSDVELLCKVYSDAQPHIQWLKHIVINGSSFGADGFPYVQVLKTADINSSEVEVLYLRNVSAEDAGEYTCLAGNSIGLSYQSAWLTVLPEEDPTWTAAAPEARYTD
Procedure, shortened: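 Streptavidin biosensors carrying biotinylated FGF receptor ECD were immersed in peptide (~1 μM for crude single-point runs, a concentration series for purified peptides) and then in peptide-free buffer. KD was obtained by fitting the BLI association and dissociation curves.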

Row | Compound | Kd (FGF-R3C ECD) [µM] | Kd (FGF-R1C ECD) [µM] | Kd (FGF-R4 ECD) [µM]
1 | CC[C@H](C)[C@@H]1NC(=O)[C@H](C)NC(=O)[C@H](Cc2ccc(O)cc2)NC(=O)[C@@H]2CCCN2C(=O)[C@@H](NC(=O)[C@H](CCSC)NC(C)=O)CSSC[C@@H](C(=O)NCC(=O)N[C@@H](CO)C(=O)NCC(=O)N[C@@H](CO)C(=O)N[C@@H](CCC(=O)O)C(=O)N[C@@H](CCC(=O)O)C(=O)NCC(=O)N[C@@H](CO)C(=O)NCC(=O)N[C@@H](CO)C(=O)N[C@@H](CC(=O)O)C(=O)N[C@@H](Cc2ccc(O)cc2)C(=O)N[C@@H](CCCCN)C(=O)N[C@@H](CC(=O)O)C(=O)N[C@@H](CC(=O)O)C(=O)N[C@@H](CC(=O)O)C(=O)N[C@@H](CC(=O)O)C(=O)N[C@@H](CCCCN)C(N)=O)NC(=O)[C@H]([C@@H](C)O)NC(=O)[C@H](CCCCN)NC(=O)[C@H](CCCNC(=N)N)NC(=O)[C@H](Cc2c[nH]c3ccccc23)NC(=O)[C@H](CCCCN)NC(=O)[C@H](Cc2ccc(O)cc2)NC(=O)[C@H](Cc2c[nH]c3ccccc23)NC(=O)[C@H](Cc2ccc(O)cc2)NC1=O (Ac-MCPYAIYWYKWRKTCGSGSEEGSGSDYKDDDDK-NH2; disulfide 2-15) | > 10 | > 10 | 0.011
2 | CSCC[C@H](NC(C)=O)C(=O)N[C@H]1CSSC[C@@H](C(=O)NCC(=O)N[C@@H](CO)C(=O)NCC(=O)N[C@@H](CO)C(=O)N[C@@H](CC(=O)O)C(=O)N[C@@H](Cc2ccc(O)cc2)C(=O)N[C@@H](CCCCN)C(=O)N[C@@H](CC(=O)O)C(=O)N[C@@H](CC(=O)O)C(=O)N[C@@H](CC(=O)O)C(=O)N[C@@H](CC(=O)O)C(=O)N[C@@H](CCCCN)C(N)=O)NC(=O)[C@H](CC(=O)O)NC(=O)[C@H](CCCNC(=N)N)NC(=O)[C@H](Cc2c[nH]c3ccccc23)NC(=O)[C@H](CC(=O)O)NC(=O)[C@H](Cc2c[nH]cn2)NC(=O)[C@H](Cc2c[nH]c3ccccc23)NC(=O)[C@H](CC(=O)O)NC(=O)[C@H](Cc2ccc(O)cc2)NC(=O)[C@H](Cc2ccc(O)cc2)NC(=O)[C@H](CC(=O)O)NC(=O)[C@H](Cc2ccc(O)cc2)NC(=O)[C@@H]2CCCN2C1=O (Ac-MCPYDYYDWHDWRDCGSGSDYKDDDDK-NH2; disulfide 2-15) | > 10 | > 10 | 1.59
3 | CSCC[C@H](NC(C)=O)C(=O)N[C@H]1CSSC[C@@H](C(=O)NCC(=O)N[C@@H](CO)C(=O)NCC(=O)N[C@@H](CO)C(=O)N[C@@H](CC(=O)O)C(=O)N[C@@H](Cc2ccc(O)cc2)C(=O)N[C@@H](CCCCN)C(=O)N[C@@H](CC(=O)O)C(=O)N[C@@H](CC(=O)O)C(=O)N[C@@H](CC(=O)O)C(=O)N[C@@H](CC(=O)O)C(=O)N[C@@H](CCCCN)C(N)=O)NC(=O)[C@H](Cc2ccccc2)NC(=O)[C@H](C(C)C)NC(=O)[C@H](CCCNC(=N)N)NC(=O)[C@H](Cc2c[nH]c3ccccc23)NC(=O)[C@H](Cc2ccc(O)cc2)NC(=O)[C@H](CCC(N)=O)NC(=O)[C@H](C(C)C)NC(=O)[C@H](Cc2ccc(O)cc2)NC(=O)[C@H](Cc2ccc(O)cc2)NC(=O)[C@@H]2CCCN2C1=O (Ac-MCPYYVQYWRVFCGSGSDYKDDDDK-NH2; disulfide 2-13) | > 10 | > 10 | 0.009
4 | CC[C@H](C)[C@@H]1NC(=O)[C@H](CCC(=O)O)NC(=O)[C@H](CCCNC(=N)N)NC(=O)[C@@H](NC(=O)[C@H](CCSC)NC(C)=O)CSSC[C@@H](C(=O)NCC(=O)N[C@@H](CO)C(=O)NCC(=O)N[C@@H](CO)C(=O)N[C@@H](CC(=O)O)C(=O)N[C@@H](Cc2ccc(O)cc2)C(=O)N[C@@H](CCCCN)C(=O)N[C@@H](CC(=O)O)C(=O)N[C@@H](CC(=O)O)C(=O)N[C@@H](CC(=O)O)C(=O)N[C@@H](CC(=O)O)C(=O)N[C@@H](CCCCN)C(N)=O)NC(=O)[C@H](CCC(N)=O)NC(=O)[C@H](Cc2c[nH]c3ccccc23)NC(=O)[C@H](CC(C)C)NC(=O)[C@H](CCC(N)=O)NC(=O)[C@H](Cc2c[nH]c3ccccc23)NC(=O)[C@H](Cc2ccc(O)cc2)NC(=O)[C@H](CCCNC(=N)N)NC1=O (Ac-MCREIRYWQLWQCGSGSDYKDDDDK-NH2; disulfide 2-13) | > 10 | > 10 | 0.027
5 | CSCC[C@H](NC(C)=O)C(=O)N[C@H]1CSSC[C@@H](C(=O)NCC(=O)N[C@@H](CO)C(=O)NCC(=O)N[C@@H](CO)C(=O)N[C@@H](CCC(=O)O)C(=O)N[C@@H](CCC(=O)O)C(=O)NCC(=O)N[C@@H](CO)C(=O)NCC(=O)N[C@@H](CO)C(=O)N[C@@H](CC(=O)O)C(=O)N[C@@H](Cc2ccc(O)cc2)C(=O)N[C@@H](CCCCN)C(=O)N[C@@H](CC(=O)O)C(=O)N[C@@H](CC(=O)O)C(=O)N[C@@H](CC(=O)O)C(=O)N[C@@H](CC(=O)O)C(=O)N[C@@H](CCCCN)C(N)=O)NC(=O)[C@H](CCCNC(=N)N)NC(=O)[C@H](CCC(N)=O)NC(=O)[C@H](Cc2c[nH]cn2)NC(=O)[C@H](Cc2c[nH]c3ccccc23)NC(=O)[C@H](CC(C)C)NC(=O)[C@H](CCCCN)NC(=O)[C@H](Cc2c[nH]c3ccccc23)NC(=O)[C@H](Cc2ccc(O)cc2)NC(=O)[C@H](Cc2ccccc2)NC(=O)[C@H](CC(C)C)NC(=O)[C@H](Cc2c[nH]cn2)NC(=O)[C@H](CCCNC(=N)N)NC1=O (Ac-MCRHLFYWKLWHQRCGSGSEEGSGSDYKDDDDK-NH2; disulfide 2-15) | > 10 | > 10 | 0.002
6 | CSCC[C@H](NC(C)=O)C(=O)N[C@H]1CSSC[C@@H](C(=O)NCC(=O)N[C@@H](CO)C(=O)NCC(=O)N[C@@H](CO)C(=O)N[C@@H](CC(=O)O)C(=O)N[C@@H](Cc2ccc(O)cc2)C(=O)N[C@@H](CCCCN)C(=O)N[C@@H](CC(=O)O)C(=O)N[C@@H](CC(=O)O)C(=O)N[C@@H](CC(=O)O)C(=O)N[C@@H](CC(=O)O)C(=O)N[C@@H](CCCCN)C(N)=O)NC(=O)[C@H](CCCCN)NC(=O)[C@H](CCCNC(=N)N)NC(=O)[C@H](Cc2c[nH]cn2)NC(=O)[C@H](C(C)C)NC(=O)[C@H](CC(C)C)NC(=O)[C@H](CCC(N)=O)NC(=O)[C@H](Cc2ccc(O)cc2)NC(=O)[C@H](Cc2ccc(O)cc2)NC(=O)[C@H](CCCCN)NC(=O)[C@H](C(C)C)NC(=O)[C@H](Cc2c[nH]c3ccccc23)NC(=O)[C@H](CCCNC(=N)N)NC1=O (Ac-MCRWVKYYQLVHRKCGSGSDYKDDDDK-NH2; disulfide 2-15) | > 10 | > 10 | 0.001
7 | CC[C@H](C)[C@@H]1NC(=O)[C@H](CO)NC(=O)[C@@H](NC(=O)[C@H](CCSC)NC(C)=O)CSSC[C@@H](C(=O)NCC(=O)N[C@@H](CO)C(=O)NCC(=O)N[C@@H](CO)C(=O)N[C@@H](CC(=O)O)C(=O)N[C@@H](Cc2ccc(O)cc2)C(=O)N[C@@H](CCCCN)C(=O)N[C@@H](CC(=O)O)C(=O)N[C@@H](CC(=O)O)C(=O)N[C@@H](CC(=O)O)C(=O)N[C@@H](CC(=O)O)C(=O)N[C@@H](CCCCN)C(N)=O)NC(=O)[C@H](CC(C)C)NC(=O)[C@@H]2CCCN2C(=O)[C@H](CCCCN)NC(=O)[C@H]([C@@H](C)O)NC(=O)[C@H]([C@@H](C)CC)NC(=O)[C@H](CCCCN)NC(=O)[C@H](Cc2ccc(O)cc2)NC(=O)[C@H](Cc2c[nH]c3ccccc23)NC(=O)[C@H](CC(C)C)NC1=O (Ac-MCSILWYKITKPLCGSGSDYKDDDDK-NH2; disulfide 2-14) | > 10 | > 10 | 0.013
